These results are taken from publication PMC10063562, “Metabolic profiling, antioxidant, and enzyme inhibition potential of Iris pseudacorus L. from Egypt and Japan: A comparative study” (Scientific Reports, 2023).

In one assay the test system is rats. The note with it: pre-administration in rats (5 and 10 mg/kg); ref [91]; cited from earlier work.
For assay [1] the following is noted: cited from earlier work; for antioxidant activity IC50: compared to propyl gallate, ref [78]; for free radical scavenging activity IC50: compared to trolox, ref [79].
Another assay deals with α-glucosidase. The settings on record: cited from earlier work.
On the set-up of assay [2]: method as in PMID 26799817. The note with it: compared to trolox; ref [80]; cited from earlier work.
The next assay relates to protein glycation. More on the design: method as in PMID 23270944. The note with it: at concentration of 3 µg/mL; ref [83]; cited from earlier work.
In assay [3] the target is T1, pancreatic lipase (Sus scrofa, UniProt P00591).
T1 construct: purchased Sigma Aldrich, Japan
T1 sequence (P00591 1-450): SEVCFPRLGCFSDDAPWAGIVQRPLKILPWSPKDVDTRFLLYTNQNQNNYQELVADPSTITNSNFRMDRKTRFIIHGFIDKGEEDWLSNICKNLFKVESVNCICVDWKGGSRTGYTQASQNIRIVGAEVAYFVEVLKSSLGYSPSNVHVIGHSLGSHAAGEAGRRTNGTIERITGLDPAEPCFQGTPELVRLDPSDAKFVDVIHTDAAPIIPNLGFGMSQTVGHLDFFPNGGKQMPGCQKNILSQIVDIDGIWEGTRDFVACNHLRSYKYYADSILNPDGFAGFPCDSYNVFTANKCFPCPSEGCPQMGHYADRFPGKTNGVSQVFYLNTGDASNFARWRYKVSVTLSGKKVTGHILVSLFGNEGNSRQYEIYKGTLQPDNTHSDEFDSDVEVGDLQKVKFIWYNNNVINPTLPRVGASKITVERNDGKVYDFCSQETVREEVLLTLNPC
Description: pancreatic lipase enzyme inhibition assay (4MUFO substrate). The class given is biochemical, porcine. The settings on record: mean ± SD, n=3. From the text:
2, 2-Diphenyl-1-picrylhydrazyl (DPPH), pancreatic lipase enzyme from porcine animal, tyrosinase enzyme from mushroom plant and α-glucosidase enzyme from Saccharomyces cerevisiae fungi were purchased from the Sigma Aldrich, Japan. Arbutin and aluminum chloride (III) were obtained from Nacalai Tesque, Japan. Cetilistat was purchased from Combi-Blocks, United States of America. Acarbose and Trolox were obtained from Wako Pure Chemical Industries, Japan. Methanol was purchased from Al-Nasr Pharmaceutical Company, Egypt.
The anti-hyperlipidemic potential of yellow flag extracts was conducted by Bitou et al. method with minor alterations. In an ELISA microplate reader, pancreatic lipase solution (50 μL at pH 7.4) in phosphate buffer (100 μg/mL, 0.2 M) was added together with 50 μL of I. pseudacorus extract at a concentration ranging from 1.56 to 100 μg/mL. After 10 min of incubation at 25 °C. […] The quantity of 4-methylumbelliferone liberated by the lipase enzyme was measured fluorometrically using a spectrophotometer at 355 nm excitation wavelength and 460 nm emission wavelength. […] The percentage of lipase inhibition was calculated using the following equation: [1- As/Ac ]*100], where As and Ac symbolize I. pseudacorus extract and […] absorbances. […]
DPPH and enzyme inhibitory assays were carried out in triplicates, and the values were expressed as mean ± standard deviation. […]

Assay [4] has as its system pancreatic lipase. The note with it: cited from earlier work.
A short description of assay [5]: DPPH radical scavenging assay. The note with it: mean ± SD, n=3. As for the experimental part: The antioxidant activity of the yellow flag extracts was determined using DPPH scavenging assay in accordance with Shimamura et al. with minimal adjustments. The reaction mixture in 96 well culture plate contained. […] After 20 min of incubation of the reaction mixture at 25 °C. The degree of bleaching of the violet tint of DPPH depends on the ability of I. pseudacorus extracts for hydrogen/electron donation and was measured spectrophotometrically at 520 nm of wavelength. Noteworthy, trolox (an artificial anti-oxidant agent) was used as a positive control. The percentage of antioxidant capacity of the yellow flag extracts equals to [ Ac-As/Ac ] *100 Where Ac, As represents the control absorbance and the I. pseudacorus extract absorbance, respectively. The graph was plotted and the inhibitory concentration 50 (IC50) value was calculated. DPPH and enzyme inhibitory assays were carried out in triplicates, and the values were expressed as mean ± standard deviation. For the determination of the in vitro antioxidant, tyrosinase, lipase, and α-glucosidase inhibition potential, the (IC50) was estimated from the graph plots of the dose–response curves at each sample concentration by GraphPad Prism software (San Diego, CA, USA). The IC50 was defined as the concentration of the sample required to inhibit 50% of the tested enzyme activity.

Assay [6] relates to Chinese hamster lung fibroblast (V79-4) cells. Also noted: method as in PMID 16102749. The settings on record: V79-4 cells exposed to hydrogen peroxide; ref [77]; cited from earlier work.
The mark [7] stands for this setting: compared with acarbose, ref [6].

Like-named read-outs stand apart in the source and are kept apart here.

In the case of `O=c1c(O)c(-c2ccc(O)c(O)c2)oc2cc(O)cc(O)c12` [Quercetin (38), Quercetin], in the assay with rats, the rat fat absorption result is on record as “remarkable decrease in rat fat absorption”.
For `COc1ccc(-c2coc3cc(O)c(OC)c(O)c3c2=O)cc1` [Irisolidone (34), Irisolidone], the “antioxidant activity IC50” value in [1] is 12.62 µg/mL.
As for `O=c1cc(-c2ccc(O)cc2)oc2c([C@@H]3O[C@H](CO)[C@@H](O)[C@H](O)[C@H]3O)c(O)cc(O)c12` [Vitexin (42), Vitexin], at α-glucosidase (setting [7]), the “α-glucosidase IC50” value is 4.1 µg/mL. Besides, the “free radical scavenging activity IC50” value in [1] was 31.4 µg/mL.
In the case of `O=c1cc(-c2ccc(O)cc2)oc2cc(O)c([C@@H]3O[C@H](CO)[C@@H](O)[C@H](O)[C@H]3O)c(O)c12` [Isovitexin (43), Isovitexin], on α-glucosidase (setting [7]), the “α-glucosidase IC50” value is given as 6.7 µg/mL.
On to `O=c1c(-c2ccc(O)cc2)coc2cc(O)cc(O)c12` [Genistein (30), Genistein], for which, at α-glucosidase (compared with acarbose, ref [85]), the “α-glucosidase IC50” value is 40.09 ± 0.94 µg/mL. In assay [2], the “DPPH IC50” value was 1.89 ± 0.16 µg/mL.
As to `CCCOC(=O)c1cc(O)c(O)c(O)c1` [propyl gallate, reference compound], the “antioxidant activity IC50” value in assay [1] is 6.72 µg/mL.
In the case of `C[C@@H]1O[C@@H](OC[C@H]2O[C@@H](Oc3c(-c4ccc(O)c(O)c4)oc4cc(O)cc(O)c4c3=O)[C@H](O)[C@@H](O)[C@@H]2O)[C@H](O)[C@H](O)[C@H]1O` [rutin, reference compound], the “protein glycation % inhibition” value with protein glycation is reported as 82.50%.
For the compound `CCCCCCCCCCCCCCCCOc1nc2ccc(C)cc2c(=O)o1` [Cetilistat], half-maximal inhibition on pancreatic lipase [3] (IC50) was put at 18.6 µM.
On to Schaftoside [Schaftoside (18)], for which the “pancreatic lipase % inhibition” value in the assay on pancreatic lipase [4] (at a concentration of 250 μg/mL, ref [88]) is listed as 95.5%. In addition, the “pancreatic lipase IC50” value at pancreatic lipase [4] (compared with orlistat, ref [88]) was 130 µg/mL.
In the case of `Cc1c(C)c2c(c(C)c1O)CCC(C)(C(=O)O)O2` (stereo not drawn) [Trolox, reference compound], the “DPPH IC50” value in assay [5] is given as 14.59 µg/mL. The “free radical scavenging activity IC50” value in assay [1] is 17.3 µg/mL.
As to `COc1ccccc1-c1coc2cc(O)c(OC)c(O)c2c1=O` [5,7-Dihydroxy-2',6-dimethoxyisoflavone], the “α-glucosidase IC50” value at α-glucosidase (compared to acarbose, ref [83]) was 0.321 ± 0.008 µg/mL. Also, in the assay on protein glycation, the “protein glycation % inhibition” value is 70.41%.
“Kaempferol-O-deoxyhexosyl hexoside (Kaempferol-O-rutinoside) [Compound 21]”: the “pancreatic lipase IC50” value on pancreatic lipase [4] (compared to orlistat, ref [90]) is 1.7 ± 0.30 µg/mL.
Regarding `COc1c(O)cc2occ(-c3ccc(O)cc3)c(=O)c2c1O` [Tectorigenin (31), Tectorigenin], the “intracellular free radical scavenging and lipid peroxidation” value in assay [6] was “scavenged intracellular free radicals and reduced lipid peroxidation”.
